How the values were obtained:
[1] = biological target: alphaVbeta5 (Homo sapiens, UniProt P06756+P18084); assay: alphaVbeta5 binding affinities (supplementary CSV only); conditions: unit inferred
Description: Supplement jm1c00533_si_002.csv, table | column: alphaVbeta5 Binding affinities (IC50)

[2] = tested on: recombinant R8102 HSV-1 strain; assay: Infection neutralization assay, 293T cells, R8102 HSV-1, β-galactosidase readout; assay type: cell-based; conditions: for effect on HSV-1 infection (in words): increasing concentrations, 1 h prior to infection and 90 min during attachment
Description: The binding of HSV-1 gH/gL to either αvβ6 or αvβ8 results in the dissociation of gL from the heterodimer, which, in turn, can favor HSV entry into cells.[27] […] R1.302, a nectin1-neutralizing mAb, was used as a positive control. In the first set of experiments, 293T cells, expressing both the αvβ6 and αvβ8 integrins, were alternatively exposed to increasing concentrations of the integrin-binding peptides and R1.302 before and during the infection by the recombinant R8102 HSV-1 strain. This virion carries, indeed, a lacZ reporter gene under the control of the α27 promoter, whose expression analysis allows for readily quantifying the infectivity.[59] […] Remarkably, these preliminary results were in agreement with the known interchangeable and additive roles played by αvβ6 and αvβ8 integrins upon HSV-1 infection.[26]
Figure 3 Inhibition of HSV-1 infection. 293T cells were exposed to increasing concentrations of the indicated peptides for 1 h prior to infection and during virus attachment for another 90 min. Infection was induced using the recombinant R8102 HSV-1 strain and measured after 8 h as β-galactosidase activity, using o-nitrophenyl-D-galactopyranoside (ONPG) as a substrate. The assays were run in triplicate. Bars show standard deviation (SD).
The experiments were performed using 293T cells in 96-well plates with extracellular virions of R8102 at an input multiplicity of infection of 5 PFU/cell. Cells were exposed to increasing concentrations of the peptides for 1 h at 37 °C, and the viral inoculum was added in the presence of peptides for 90 min at 37 °C. After the removal of the inoculum and rinsing with DMEM containing 1% FBS, the cells were incubated without peptides for 8 h. The same protocol was followed for R1.302 mAb that was used as a positive control. The infection was quantified as β-Gal activity using o-nitrophenyl-D-galactopyranoside (ONPG) as a substrate.[86]

[3] = tested on: recombinant K26GFP HSV-1 strain; assay: Infection neutralization assay, transfected J cells, K26GFP HSV-1, EGFP expression; assay type: cell-based; conditions: for effect on HSV-1 infection (in words): J cells expressing nectin1 alone; for effect on virus entry (in words): J cells expressing nectin1 plus αvβ6 alone
Description: To this aim, we selected the J cells, which are negative for gD receptors and therefore cannot be infected by HSV-1 unless gD cognate receptors (i.e., nectin1) are transgenically expressed. […] In particular, J cells were transfected with low amounts of nectin1 plasmid, plus either αvβ6 or αvβ8 integrin plasmid or both, and then infected with the recombinant K26GFP HSV-1 strain. Indeed, the capsid protein ICP26 of this strain is fused to the green fluorescent protein (GFP),[60] whose cellular expression can be used to measure the viral infection. Thus, the K26GFP entry in J cells after compound treatment was evaluated using fluorescent microscopy (Figure 4A–T), and the enhanced green fluorescent protein (EGFP) expression was quantified using flow cytometry as the mean fluorescence intensity (MFI) of gated cells (Figure 4U). […] In parallel, we also evaluated the HSV infection in J cells expressing nectin1 plus either αvβ6 or αvβ8 alone.
J cells were transfected with a low amount (75 ng of DNA/24 well) of nectin1 alone (A–E), or with the same amount of nectin1 plus αvβ6 integrin (300 ng DNA/24 well) (F–J), or plus αvβ8 integrin (300 ng DNA/24 well) (K–O), or plus both the integrin receptors (P–T). […] The cells were infected with K26GFP. The nonpenetrated virus was inactivated by an acid wash. Infectivity was measured at 16 h after infection as EGFP expression. (A)–(T) panels show the EGFP expression in each sample for a typical experiment. (U) K26GFP infection was quantified as EGFP protein expression in the flow cytometry assay as the mean fluorescence intensity (MFI) of gated cells. Histograms represent the average of triplicates ± SD.
In other experiments, J cells were transfected with low amounts of plasmids encoding nectin1 (75 ng of DNA/24 well), plus or minus plasmids encoding αv + β6 or αv + β8 integrins (300 ng of DNA/24 well) or together by means of Lipofect 2000 (Life Technologies). The total amount of transfected plasmid DNA was made equal (675 ng/24 well) by the addition of Erb-2 plasmid DNA. […] Following infection, the unpenetrated virus was inactivated by means of an acid wash (40 mM citric acid, 10 mM KCl, 135 mM NaCl, pH 3),[87] and the cells were incubated for a further 16 h in the absence of the peptides or antibody. The extent of infection was assessed through EGFP expression.
Cytofluorimetric analyses were performed using an AccuriC6 flow cytometer (Becton Dickinson). A least 10 000 events were acquired for each sample. Microphotography of the inhibition experiment was conducted using a Nikon Eclipse Ni microscope.

[4] = J cells expressing nectin1 plus both αvβ6 and αvβ8, 700 μM
[5] = J cells expressing nectin1 plus αvβ8 alone, 700 μM

Chain of alphaVbeta5 (P06756 31-1048): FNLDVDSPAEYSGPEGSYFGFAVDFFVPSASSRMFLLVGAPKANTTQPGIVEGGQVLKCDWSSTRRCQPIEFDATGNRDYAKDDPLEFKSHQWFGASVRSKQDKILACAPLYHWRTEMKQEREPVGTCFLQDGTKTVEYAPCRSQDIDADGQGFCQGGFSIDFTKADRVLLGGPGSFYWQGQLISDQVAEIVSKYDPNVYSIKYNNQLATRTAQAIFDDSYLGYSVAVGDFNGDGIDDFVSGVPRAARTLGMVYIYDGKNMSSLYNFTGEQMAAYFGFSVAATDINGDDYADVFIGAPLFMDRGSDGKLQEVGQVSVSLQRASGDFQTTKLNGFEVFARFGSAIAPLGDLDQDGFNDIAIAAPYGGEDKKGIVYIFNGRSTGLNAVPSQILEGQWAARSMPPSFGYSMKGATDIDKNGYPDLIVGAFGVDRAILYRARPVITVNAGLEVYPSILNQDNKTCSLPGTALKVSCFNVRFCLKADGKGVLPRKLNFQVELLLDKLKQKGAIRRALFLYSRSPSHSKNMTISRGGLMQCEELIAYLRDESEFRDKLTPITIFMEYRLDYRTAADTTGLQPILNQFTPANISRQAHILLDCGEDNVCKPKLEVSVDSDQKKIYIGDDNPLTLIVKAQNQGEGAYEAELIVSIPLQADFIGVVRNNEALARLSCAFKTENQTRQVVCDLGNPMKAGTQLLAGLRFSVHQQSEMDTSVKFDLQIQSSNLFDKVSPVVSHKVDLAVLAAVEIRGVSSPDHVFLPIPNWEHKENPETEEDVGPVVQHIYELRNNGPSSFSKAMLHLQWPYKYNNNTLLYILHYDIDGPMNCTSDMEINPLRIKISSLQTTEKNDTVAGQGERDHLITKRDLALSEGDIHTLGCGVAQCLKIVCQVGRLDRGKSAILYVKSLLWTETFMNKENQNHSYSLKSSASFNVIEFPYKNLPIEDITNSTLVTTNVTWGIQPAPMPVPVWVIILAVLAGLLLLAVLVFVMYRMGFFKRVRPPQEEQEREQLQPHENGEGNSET
Chain of alphaVbeta5 (P18084 24-799): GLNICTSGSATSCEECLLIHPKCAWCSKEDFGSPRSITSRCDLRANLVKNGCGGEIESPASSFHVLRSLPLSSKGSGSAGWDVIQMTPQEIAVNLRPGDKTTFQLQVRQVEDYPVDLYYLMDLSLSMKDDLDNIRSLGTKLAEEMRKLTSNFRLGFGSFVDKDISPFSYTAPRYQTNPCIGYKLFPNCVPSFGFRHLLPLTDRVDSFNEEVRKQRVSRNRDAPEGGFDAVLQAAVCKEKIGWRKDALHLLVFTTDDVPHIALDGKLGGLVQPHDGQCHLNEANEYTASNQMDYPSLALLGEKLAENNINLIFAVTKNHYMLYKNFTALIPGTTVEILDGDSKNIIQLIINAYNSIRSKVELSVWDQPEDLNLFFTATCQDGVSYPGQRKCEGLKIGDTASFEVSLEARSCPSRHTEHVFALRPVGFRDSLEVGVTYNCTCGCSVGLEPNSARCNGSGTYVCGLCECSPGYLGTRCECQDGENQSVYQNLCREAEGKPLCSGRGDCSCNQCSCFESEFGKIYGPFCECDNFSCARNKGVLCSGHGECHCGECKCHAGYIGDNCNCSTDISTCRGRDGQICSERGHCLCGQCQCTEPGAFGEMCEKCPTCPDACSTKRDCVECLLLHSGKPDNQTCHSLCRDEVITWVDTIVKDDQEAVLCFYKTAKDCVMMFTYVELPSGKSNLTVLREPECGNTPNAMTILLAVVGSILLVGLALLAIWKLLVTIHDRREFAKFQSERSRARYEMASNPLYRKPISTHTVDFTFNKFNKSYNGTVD

| SMILES | IC50 [1] | inhibition of HSV infection ([2]; 700 μM) | maximum inhibition of HSV-1 infection ([2]; at 1000 μM) | effect on HSV-1 infection (in words) [2] | effect on HSV-1 infection (in words) ([3]; 700 μM) | effect on HSV infection (in words) [3, 4] | effect on virus entry (in words) ([3]; 700 μM) | effect on HSV infection (in words) [3, 5] |
| --- | --- | --- | --- | --- | --- | --- | --- | --- |
| N=C(N)NCCC[C@@H]1NC(=O)CC[C@@H](C(N)=O)NC(=O)[C@H](C2CCCCC2)NC(=O)[C@H](CC(=O)O)NC(=O)CNC1=O [compound 1, [Arg-Gly-Asp-Chg-Glu]-CONH2] | > 5 µM | 40% | 50% | able to inhibit HSV-1 infection in a dose-dependent manner | only treatment with R1.302 (B) was effective | only partially impaired | the virus entry was affected | inhibitory effects were detected only in the presence of 6 |
| CN1C(=O)[C@H](C2CCCCC2)NC(=O)[C@H](CC(=O)O)NC(=O)CNC(=O)[C@H](CCCNC(=N)N)NC(=O)CC[C@H]1C(N)=O [compound 6, [Arg-Gly-Asp-Chg-(NMe)Glu]-CONH2] | > 5 µM | – | – | able to inhibit HSV-1 infection in a dose-dependent manner | only treatment with R1.302 (B) was effective | significantly reduced | the virus entry was affected | inhibitory effects were detected only in the presence of 6 |

— paper PMC8279406 (Journal of Medicinal Chemistry, 2021)
